Entries after “also recorded” stand apart in the source; their conditions may differ. Read-outs that look alike come from different tables or passages of the source.
How the values were obtained:
SmBRD3(1,2) = SmBRD3(1,2) (Schistosoma mansoni, UniProt A0A5K4ESD7); experiment: biochemical; assay type: binding; conditions: for N number, binding to SmBRD3(1,2): ITC stoichiometry, n=1 ± error of curve fit
SmBRD3(2) = SmBRD3(2) (Schistosoma mansoni, UniProt A0A5K4ESD7); experiment: biochemical; assay type: binding; conditions: for N number, binding to SmBRD3(2), Repeat 1 / N number, binding to SmBRD3(2), Repeat 2 / N number, binding to SmBRD3(2), Mean / N number, binding to SmBRD3(2), Repeat 3: ITC stoichiometry; for N number, binding to SmBRD3(2), Mean: mean of repeats
chromLogD assay = assay type: physicochemical; conditions: reversed phase HPLC column (Gemini NX C18), pH 7.4
Method: Lipophilicity: a chromLogD assay was carried out by the Physchem Team, Discovery Analytical, NCE Molecular Discovery at GSK. The chromatographic hydrophobicity index (CHI)[46],[47] values were measured using reversed phase HPLC column (50 × 2 mm […] Gemini NX C18, Phenomenex, UK) with fast acetonitrile gradient at starting mobile phase of pHs 2, 7.4, or 10.5. CHI values were derived directly from the gradient retention times using calibration parameters for standard compounds. The CHI value approximates to the volume % organic concentration when the compound elutes. CHI was linearly transformed into a chromLogD[48] value by least-squares fitting of experimental CHI values to calculated cLogP values for over 20000 research compounds.

CAD solubility assay = assay type: physicochemical; conditions: phosphate buffered saline, pH 7.4, phosphate buffered saline at pH 7.4; read-out: Aqueous Solubility by CAD
Method: A CAD solubility assay was carried out by Physchem Team, Discovery Analytical, NCE Molecular Discovery at GSK. 5 μL of 10 mM DMSO stock solution was diluted to 100 μL with pH 7.4 phosphate buffered saline, equilibrated for 1 h at room temperature, and filtered through Millipore MultiscreenHTS-PCF filter plates (MSSL BPC). The filtrate was quantified using a suitably calibrated charged aerosol detector.[45]

S. mansoni miracidia = experiment: Ex vivo miracidia to sporocyst transformation screening; parameters: species or system Schistosoma mansoni; conditions: 0.5-25 μM in 1% DMSO; 48 h; 26 °C
Method: S. mansoni miracidia were obtained by hatching of schistosome eggs as previously described.[73] The resulting miracidial suspension was collected, washed with Chernin’s balanced salt solution (CBSS),[73] and enumerated prior to being used for ex vivo miracidia to sporocyst screens as previously reported.[66],[73] Each compound was tested at 0.5, 2.0, 5.0, 10, and 25 μM final concentrations (in 1% DMSO). Each treatment was set up in duplicate (15–25 miracidia/well). Each titration was performed in three independent experiments (two technical replicates per data point). Parasites cultured in CBSS (containing 1% DMSO) were included as negative controls. After 48 h incubation at 26 °C in the dark, dead, fully transformed and partially transformed miracidia were enumerated as previously described.[74],[75]

S. mansoni adult worms = experiment: Ex vivo adult worm screening (motility, IVLEs, pairing); parameters: species or system Schistosoma mansoni; conditions: 20 μM in 0.2% DMSO; 72 h
Method: S. mansoni adult worms were recovered by hepatic portal vein perfusion from TO mice (Mus musculus HsdOLa:TO - Tuck Ordinary; Envigo, UK) that were percutaneously infected 7 weeks earlier with 180 cercariae.[65],[71] Following perfusion, schistosomes were washed and processed as previously described.[65],[66] Subsequently, schistosome pairs were seeded into 48 well tissue culture plates (1 worm pair/well, in duplicate) and dosed with the compounds (20 μM in 0.2% DMSO). DMSO (0.2%) and praziquantel (10 μM in 0.1% DMSO) were also included as negative and positive controls, respectively. Parasite motility was assessed by a digital image processing-based system (WormassayGP2),[66] modified after Wormassay.[72]In vitro laid eggs (IVLEs) were enumerated and the presence or absence of paired worms was noted.

S. mansoni schistosomula = experiment: Ex vivo schistosomula screening (Roboworm high content imaging); parameters: species or system Schistosoma mansoni; conditions: 72 h; for EC50: Schistosoma mansoni, ethyl esters (R=Et), 95% CI in brackets
Method: A high-throughput imaging platform that quantifies both phenotype and motility ex vivo, was used to screen compounds against schistosomula; their effects were assessed as previously described.[20] Briefly, the schistosomula stage of S. mansoni was obtained by mechanical transformation of cercariae, dispensed into 384-well tissue culture plates, and dosed with 20 μM (Figure 7) or 10 μM (Figure S48) of each compound. Following 72 h coincubation of the schistosomula and compound, the plate was subjected to high content imaging to quantify the effects of each compound.
S. mansoni schistosomula were obtained by mechanical transformation from cercariae as previously described,[64] distributed in 384-well tissue culture plates (PerkinElmer, catalogue number 6007460) at 120 parasites/well and dosed with the selected compounds as previously reported.[65]−[68] For this study, each compound (as 10 mM DMSO stock solution) was initially tested at two concentration points (20 and 10 μM final concentration, in duplicates) in at least four independent screens (Z′ scores above 0.35).[69] Each screen contained both positive (10 μM auranofin (AUR) in 0.625% DMSO) and negative (0.625% DMSO) controls. […] Following 72 h schistosomula/compound coincubation, the plate was analyzed by the Roboworm platform.[70] EC50 values were calculated from the titrated concentrations by nonlinear regression, after log transformation of concentrations and data normalization using GraphPad Prism 7.02.

[1] = SmBRD3(1,2) Kd, ITC, n = 1 ± error of the curve fit
[2] = ITC, single run ± error of curve fit, Repeat 1
[3] = ITC, single value ± error of the curve fit or mean of 2-3 repeats ± s.e.m.
[4] = ITC, read-out: SmBRD3(2) pKd (converted)
[5] = ITC, single run ± error of curve fit, Repeat 2, read-out: SmBRD3(2) Kd, Repeat 2
[6] = read-out: SmBRD3(2) Kd, Repeat 1
[7] = ITC, single run ± error of curve fit, Repeat 3, read-out: SmBRD3(2) Kd, Repeat 3
[8] = 20 μM (Figure 7) or 10 μM (Figure S48)
[9] = read-out: Schistosomla Movement EC50
[10] = read-out: Schistosomla Phenotype EC50

SmBRD3(1,2), sequence (A0A5K4ESD7 entry or part of it): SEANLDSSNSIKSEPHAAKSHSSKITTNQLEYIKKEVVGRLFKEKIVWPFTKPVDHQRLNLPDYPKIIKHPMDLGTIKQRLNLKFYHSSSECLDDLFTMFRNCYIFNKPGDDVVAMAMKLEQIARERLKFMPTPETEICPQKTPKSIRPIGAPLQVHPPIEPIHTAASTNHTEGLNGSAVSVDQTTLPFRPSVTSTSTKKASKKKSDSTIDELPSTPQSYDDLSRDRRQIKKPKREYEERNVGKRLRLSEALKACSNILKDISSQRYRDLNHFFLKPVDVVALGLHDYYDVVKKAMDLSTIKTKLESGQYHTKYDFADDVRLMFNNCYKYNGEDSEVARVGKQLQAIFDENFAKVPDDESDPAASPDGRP
SmBRD3(2), sequence (A0A5K4ESD7 entry or part of it): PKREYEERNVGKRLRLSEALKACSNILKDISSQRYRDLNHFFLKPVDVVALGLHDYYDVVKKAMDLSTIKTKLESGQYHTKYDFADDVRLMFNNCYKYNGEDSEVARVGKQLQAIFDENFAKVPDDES

Row | SmBRD3(2) Kd (SmBRD3(2)) | SmBRD3(2) Kd, Repeat 1 (SmBRD3(2)) | N number, binding to SmBRD3(2), Repeat 1 (SmBRD3(2); Repeat 1) | N number, binding to SmBRD3(2), Repeat 2 (SmBRD3(2); Repeat 2) | N number, binding to SmBRD3(2), Mean (SmBRD3(2)) | Kd (SmBRD3(2); [4]) [nM] | Kd (SmBRD3(2); [5]) [nM] | Kd (SmBRD3(2); read-out: SmBRD3(2) Kd) [nM] | Structure (SMILES) | Effect on adult worm movement (S. mansoni adult worms) | other results
1 |  |  |  |  |  |  |  |  | Cc1noc(C)c1-c1cc(O)cc(C(O)c2ccc(F)cc2)c1 (centres unmarked) [Compound 3, OXFBD02-F, reference compound] |  | N number, binding to SmBRD3(1,2) (SmBRD3(1,2)): 1.05 ± 3.9e-2; Kd (SmBRD3(1,2); [1]): 1750 ± 301 nM; Kd (SmBRD3(1,2); SmBRD3(1,2) pKd, ITC): 1580 nM; SmBRD3(2) Kd, Repeat 1 (SmBRD3(2); [2]): No binding; SmBRD3(2) Kd (SmBRD3(2); [3]): No detectable binding
2 |  |  | 1.54 ± 2.5e-2 | 1.49 ± 3.0e-2 | 1.52 | 1260 | 1300 ± 236 | 1180 ± 120 | CC(=O)N1c2ccc(-c3ccc(C(=O)O)cc3)cc2[C@H](Nc2ccc3ccoc3c2)C[C@@H]1C [Compound 11, 4-((2S,4R)-1-Acetyl-4-[(1-benzofuran-6-yl)amino]-2-methyl-1,2,3,4-tetrahydroquinolin-6-yl)benzoic Acid] |  | Kd (SmBRD3(2); [6]): 1060 ± 164 nM
3 |  |  | 1.51 ± 1.8e-2 | 1.55 ± 1.4e-2 | 1.53 | 501 | 543 ± 60.3 | 553 ± 9.5 | CC(=O)N1c2ccc(-c3ccc(C(=O)O)cc3)cc2[C@H](Nc2ccc3sccc3c2)C[C@@H]1C [Compound 12, 4-((2S,4R)-1-Acetyl-4-[(1-benzothiophen-5-yl)amino]-2-methyl-1,2,3,4-tetrahydroquinolin-6-yl)benzoic Acid] |  | Kd (SmBRD3(2); [6]): 562 ± 79.1 nM
4 |  |  | 1.52 ± 2.0e-2 | 1.71 ± 1.8e-2 | 1.61 | 631 | 652 ± 78.5 | 651 ± 12.7 | CC(=O)N1c2ccc(-c3ccc(C(=O)O)cc3)cc2[C@H](Nc2ccc3[nH]ccc3c2)C[C@@H]1C [Compound 13, 4-{(2S,4R)-1-Acetyl-4-[(1H-indol-5-yl)amino]-2-methyl-1,2,3,4-tetrahydroquinolin-6-yl}benzoic Acid] |  | N number, binding to SmBRD3(2), Repeat 3 (SmBRD3(2); Repeat 3): 1.60 ± 1.6e-2; Kd (SmBRD3(2); [7]): 672 ± 76 nM; Kd (SmBRD3(2); [6]): 628 ± 94.9 nM
5 |  |  | 1.42 ± 2.4e-2 | 1.54 ± 0.101 | 1.48 | 1260 | 1270 ± 779 | 1180 ± 86.7 | CC(=O)N1c2ccc(-c3ccc(C(=O)O)cc3)cc2[C@H](Nc2ccc3ncsc3c2)C[C@@H]1C [Compound 14, 4-{(2S,4R)-1-Acetyl-4-[(1,3-benzothiazol-6-yl)amino]-2-methyl-1,2,3,4-tetrahydroquinolin-6-yl}benzoic acid] |  | chromatographic logD (chromLogD assay): 1.78; N number, binding to SmBRD3(2), Repeat 3 (SmBRD3(2); Repeat 3): 1.49 ± 5.4e-2; Kd (SmBRD3(2); ITC, single run ± error of curve fit, Repeat 1, read-out: SmBRD3(2) Kd, Repeat 1): 1010 ± 160 nM; Kd (SmBRD3(2); [7]): 1270 ± 349 nM; solubility at 1 h (CAD solubility assay): ≥ 260 µM
6 | No binding | No binding |  |  |  |  |  |  | CCOC(=O)c1ccc(-c2ccc3c(c2)[C@H](Nc2ccc4ccsc4c2)C[C@H](C)N3C(C)=O)cc1 [Compound 16, Ethyl 4-{(2S,4R)-1-Acetyl-4-[(1-benzothiophen-6-yl)amino]-2-methyl-1,2,3,4-tetrahydroquinolin-6-yl}benzoate] | substantial effects | Effect on miracidia to sporocyst transformation (S. mansoni miracidia): concentration-dependent inhibition
7 | No binding | No binding |  |  |  |  |  |  | CCOC(=O)c1ccc(-c2ccc3c(c2)[C@H](Nc2ccc4ccoc4c2)C[C@H](C)N3C(C)=O)cc1 [Compound 18, Ethyl 4-{(2S,4R)-1-Acetyl-4-[(1-benzofuran-6-yl)amino]-2-methyl-1,2,3,4-tetrahydroquinolin-6-yl}benzoate] | substantial effects | Antischistosomula activity at 10 μM (S. mansoni schistosomula): active; Effect on schistosomula motility (S. mansoni schistosomula; [8]): substantial effects; EC50 (S. mansoni schistosomula; [9]): 3920 nM; EC50 (S. mansoni schistosomula; [10]): 2430 nM
8 | No binding | No binding |  |  |  |  |  |  | CCOC(=O)c1ccc(-c2ccc3c(c2)[C@H](Nc2ccc4sccc4c2)C[C@H](C)N3C(C)=O)cc1 [Compound 19] |  | 
9 | No binding | No binding |  |  |  |  |  |  | CCOC(=O)c1ccc(-c2ccc3c(c2)[C@H](Nc2ccc4[nH]ccc4c2)C[C@H](C)N3C(C)=O)cc1 [Compound 20, Ethyl 4-{(2S,4R)-1-Acetyl-4-[(1H-indol-5-yl)amino]-2-methyl-1,2,3,4-tetrahydroquinolin-6-yl}benzoate] | substantial effects | Antischistosomula activity at 10 μM (S. mansoni schistosomula): active; EC50 (S. mansoni schistosomula; [9]): 1810 nM; EC50 (S. mansoni schistosomula; [10]): 2970 nM
10 | No binding | No binding |  |  |  |  |  |  | CCOC(=O)c1ccc(-c2ccc3c(c2)[C@H](Nc2ccc4ncsc4c2)C[C@H](C)N3C(C)=O)cc1 [Compound 21, Ethyl 4-{(2S,4R)1-Acetyl-4-[(1,3-benzothiazol-6-yl)amino]-2-methyl-1,2,3,4-tetrahydroquinolin-6-yl}benzoate] | substantial effects | Antischistosomula activity at 10 μM (S. mansoni schistosomula): active; Effect on schistosomula motility (S. mansoni schistosomula; [8]): greatest effects; Effect on schistosomula phenotype (S. mansoni schistosomula; [8]): greatest effects; EC50 (S. mansoni schistosomula; [9]): 2850 nM; EC50 (S. mansoni schistosomula; [10]): 2140 nM
11 |  |  |  |  |  |  |  |  | Cc1noc(C)c1-c1cc(O)cc(C(O)c2cccnc2)c1 (centres unmarked) [OXFBD04 (4), OXFBD04, reference compound] |  | Effect on miracidia to sporocyst transformation (S. mansoni miracidia): modest effects; N number, binding to SmBRD3(1,2) (SmBRD3(1,2)): 1.39 ± 2.0e-2; Kd (SmBRD3(1,2); [1]): 2950 ± 261 nM; Kd (SmBRD3(1,2); SmBRD3(1,2) pKd, ITC): 3160 nM; SmBRD3(2) Kd, Repeat 1 (SmBRD3(2); [2]): No binding; SmBRD3(2) Kd (SmBRD3(2); [3]): No detectable binding

Row | Structure (SMILES) | SmBRD3(2) Kd (SmBRD3(2)) | SmBRD3(2) Kd, Repeat 1 (SmBRD3(2)) | N number, binding to SmBRD3(2), Repeat 1 (SmBRD3(2); Repeat 1) | N number, binding to SmBRD3(2), Repeat 2 (SmBRD3(2); Repeat 2) | N number, binding to SmBRD3(2), Mean (SmBRD3(2)) | Kd (SmBRD3(2); [4]) [nM] | Kd (SmBRD3(2); [5]) [nM] | Kd (SmBRD3(2); read-out: SmBRD3(2) Kd) [nM] | Effect on adult worm movement (S. mansoni adult worms) | other results
12 | CC(=O)N1c2ccc(-c3ccc(C(=O)O)cc3)cc2[C@@H](Nc2ccc3ccsc3c2)C[C@H]1C [Compound 10, 4-{(2R,4S)-1-Acetyl-4-[(1-benzothiophen-6-yl)amino]-2-methyl-1,2,3,4-tetrahydroquinolin-6-yl}benzoic Acid] | No detectable binding; also recorded: does not bind | No binding |  |  |  |  |  |  |  | SmBRD3(1,2) Kd (SmBRD3(1,2); ITC, n = 1 ± error of the curve fit): No detectable binding; chromatographic logD (chromLogD assay): 2.83; solubility at 1 h (CAD solubility assay): > 259 µM

— publication PMC10726355, “Small Molecule Ligands of the BET-like Bromodomain, SmBRD3, Affect Schistosoma mansoni Survival, Oviposition, and Development” (Journal of Medicinal Chemistry, 2023)
